For three molecules, molar volume results are on record in the NIST ThermoML archive (doi:10.1016/j.fluid.2010.06.007).

Numbers after ± are expanded uncertainties.

The conditions of this data set: 298.15 K; 101.33 kPa; Liquid; Vibrating tube method.
Consider `C1CCOC1` [tetrahydrofuran], for which the molar volume came out at 8.174e-05 ± 4e-08 m3/mol.

On to `ClC(Cl)Cl` [trichloromethane], for which the molar volume is listed as 8.071e-05 ± 4e-08 m3/mol.

Regarding `C1CCCCC1` [cyclohexane], the molar volume is given as 0.0001088 ± 5e-08 m3/mol.
